The record followed here is patent publication US12414559B2, “Mixtures and compositions comprising 5-fluoro-4-imino-3-methyl-1-tosyl-3,4-dihydropyrimidin-2-one, and methods of use thereof” (Adama Makhteshim Ltd., priority 2018, dated 2025).

The data set is described as follows: Chemical stability on storage: concentration / degradation of compound of Formula I in the composition. It is filed as physicochemical. The conditions noted are these: after 8 weeks of storage at 40° C. The text has this: As used herein, the term “stable” when used in connection with chemical stability, e.g, chemically stable, means that the composition meets the chemical stability standards set forth by the Food and Agriculture Organization of the United Nations (FAO) in the Manual on Development and Use of FAO and WHO Specification for Pesticides (First Edition—Third Revision) (the “FAO/WHO Manual”) (available at http://www.fao.gov/agriculture/crops/thematic-sitemap/theme/pests/jmps/manual/en/), the entire content of which is hereby incorporate by reference into the subject application. […] The amount of degradation permitted before the degradation is considered to be significant depends on the concentration of the active ingredients in the composition.
The physical and chemical stability of composition of Example were tested under various conditions including CIPAC conditions.

Turning to `Cc1ccc(S(=O)(=O)n2cc(F)c(=N)n(C)c2=O)cc1` [compound of Formula I, 5-fluoro-4-imino-3-methyl-1-tosyl-3,4-dihydropyrimidin-2(1H)-one], the “degradation of the compound of Formula I” value is 4% (with Attagel 50 (0.5% by weight) and Bentone SD-1 (0.5% by weight)); 7-8% (without Attagel 50 and Bentone SD-1).
